Measured values from patent publication US7566712B2, “Biaryl piperazinyl-pyridine analogues” (Neurogen Corporation, priority 2003, dated 2009).

These molecules were tested against T1, human capsaicin receptor (Homo sapiens, UniProt Q8NER1) (assay: Calcium mobilization assay, determination of antagonist activity (Example 6)). Conditions: Table II; determined as described in Example 6 (antagonist activity); "*" = 1 micromolar or less.
T1 construct: pBK-CMV expression construct encoding the full length human capsaicin receptor; expressed in transfected cells
T1 sequence (Q8NER1 whole entry): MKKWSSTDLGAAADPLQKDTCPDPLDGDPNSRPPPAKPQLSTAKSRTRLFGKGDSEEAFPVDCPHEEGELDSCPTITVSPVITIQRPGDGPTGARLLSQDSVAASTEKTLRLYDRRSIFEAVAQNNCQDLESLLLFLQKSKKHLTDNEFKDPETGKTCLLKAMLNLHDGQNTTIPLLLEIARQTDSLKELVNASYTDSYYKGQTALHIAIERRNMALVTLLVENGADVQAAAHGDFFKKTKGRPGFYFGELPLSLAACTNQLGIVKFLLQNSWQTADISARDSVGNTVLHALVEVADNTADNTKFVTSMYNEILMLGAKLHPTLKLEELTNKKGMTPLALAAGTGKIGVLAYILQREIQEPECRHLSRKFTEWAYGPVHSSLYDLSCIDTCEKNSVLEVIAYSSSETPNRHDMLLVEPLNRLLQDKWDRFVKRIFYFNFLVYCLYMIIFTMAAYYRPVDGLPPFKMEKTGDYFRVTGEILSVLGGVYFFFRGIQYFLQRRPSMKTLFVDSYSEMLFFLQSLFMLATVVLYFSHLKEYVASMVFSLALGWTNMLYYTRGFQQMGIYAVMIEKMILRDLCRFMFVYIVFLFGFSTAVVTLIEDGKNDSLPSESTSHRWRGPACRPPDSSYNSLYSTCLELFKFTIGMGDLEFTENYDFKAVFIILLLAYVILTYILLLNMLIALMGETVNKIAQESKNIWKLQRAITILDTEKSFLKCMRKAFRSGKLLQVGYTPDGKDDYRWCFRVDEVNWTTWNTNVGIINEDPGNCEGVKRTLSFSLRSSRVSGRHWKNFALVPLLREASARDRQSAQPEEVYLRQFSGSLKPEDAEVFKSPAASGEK
Type: cell-based
In short: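 HEK293 clonal lines stably expressing full-length human capsaicin receptor, loaded with Fluo-3 AM in KRH buffer pH 7.4, 1–2 h at 37 °C. Compounds (1–5 μM final) preincubated 0.5–6 h at room temperature, then capsaicin at its EC50 added. FLIPR/Fluoroskan calcium signal; IC50 as 50% decrease of capsaicin response.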

Compound | IC50 [nM]
Fc1ccc(-c2cc(N3CCN(c4ncccc4C(F)(F)F)CC3)nc(N3C[C@H]4C[C@@H]3CN4)n2)cc1Cl [Example 775, (1R,4R)-2-(4-(3-chloro-4-fluorophenyl)-6-{4-[3-(trifluoromethyl)pyridin-2-yl]piperazin-1-yl}pyrimidin-2-yl)-2,5-diazabicyclo[2.2.1]heptane] | ≤ 1000
COC1CN(c2nc(-c3ccc(F)c(Cl)c3)cc(N3CCN(c4ncccc4C(F)(F)F)CC3)n2)C1 [Example 776, 4-(3-chloro-4-fluorophenyl)-2-(3-methoxyazetidin-1-yl)-6-{4-[3-(trifluoromethyl)pyridin-2-yl]piperazin-1-yl}pyrimidine] | ≤ 1000
CCCN1C[C@H]2C[C@@H]1CN2c1nc(-c2ccc(F)c(Cl)c2)cc(N2CCN(c3ncccc3C(F)(F)F)CC2)n1 [Example 777, (1R,4R)-2-(4-(3-chloro-4-fluorophenyl)-6-{4-[3-(trifluoromethyl)pyridin-2-yl]piperazin-1-yl}pyrimidin-2-yl)-5-propyl-2,5-diazabicyclo[2.2.1]heptane] | ≤ 1000
CC1(O)CN(c2nc(-c3ccc(F)c(Cl)c3)cc(N3CCN(c4ncccc4C(F)(F)F)CC3)n2)C1 [Example 778, 1-(4-(3-chloro-4-fluorophenyl)-6-{4-[3-(trifluoromethyl)pyridin-2-yl]piperazin-1-yl}pyrimidin-2-yl)-3-methylazetidin-3-oI] | ≤ 1000
CC1CCN1c1nc(-c2ccc(F)c(Cl)c2)cc(N2CCN(c3ncccc3Cl)C[C@H]2C)n1 (stereo partly drawn) [Example 780, 4-(3-ohloro-4-fluorophenyi)-6-[(2R)-4-(3-chloropyridin-2-yl)-2-methylpiperazin-1-yl]-2-(2-methylazetidin-1-yl)pyrimidine] | ≤ 1000
CC1CCN1c1nc(-c2ccc(F)c(Cl)c2)cc(N2CCN(c3ncccc3C(F)(F)F)C[C@H]2C)n1 (stereo partly drawn) [Example 781, 4-(3-chloro-4-fluorophenyl)-2-(2-methylazetidin-1-yl)-6-{(2R)-2-methyl-4-[3-(trifluoromethyl)pyridin-2-yl]piperazin-1-yl}pyrimidine] | ≤ 1000
C[C@@H]1CN(c2ncccc2C(F)(F)F)CCN1c1cc(-c2ccc(F)cc2)nc(N2CCCC2)n1 [Example 782, 4-(4-fluorophenyl)-6-{(2R)-2-methyl-4-[3-(trifluoromethyl)pyridin-2-yl]piperazin-1-yl}-2-pyrrolidin-1-ylpyrirnidine] | ≤ 1000
CC1CCCN1c1nc(-c2ccc(F)cc2)cc(N2CCN(c3ncccc3C(F)(F)F)C[C@H]2C)n1 (stereo partly drawn) [Example 783, 4-(4-fluorophenyl)-2-(2-methylpyrrolidin-1-yl)-6-{(2R)-2-methyl-4-[3-(trifluoromethyl)pyridin-2-yl]piperazin-1-yl}pyrimidine] | ≤ 1000
C[C@@H]1CN(c2ncccc2C(F)(F)F)CCN1c1cc(-c2ccc(F)cc2)nc(N2CCCCC2)n1 [Example 784, 4-(4-fluorophenyl)-6-{(2R)-2-methyl-4-[3-(trifluoromethyl)pyridin-2-yl]piperazin-1-yl}-2-piperidin-1-ylpyrimidine] | ≤ 1000
Cc1cc(-c2cc(N3CCN(c4ncccc4Cl)C[C@H]3C)nc(N3CCC3C)n2)ccc1F (stereo partly drawn) [Example 785, 4-[(2R)-4-(3-chloropyridin-2-yl)-2-methylpiperazin-1-yl]-6-(4-fluoro-3-methylphenyl)-2-(2-methylazetidin-1-yl)pyrimidine] | ≤ 1000
CCCN1CCN(c2nc(-c3ccc(F)c(F)c3)cc(N3CCN(c4ncccc4Cl)C[C@H]3C)n2)CC1 [Example 788, 4-[(2R)-4-(3-chloropyridin-2-yl)-2-methylpiperazin-1-yl]-6-(3,4-difluorophenyl)-2-(4-propylpiperazin-1-yl)pyrimidine] | ≤ 1000
CN(C)C1CN(c2nc(-c3ccc(F)c(Cl)c3)cc(N3CCN(c4ncccc4C(F)(F)F)CC3)n2)C1 [Example 789, 1-(4-(3-chloro-4-fluorophenyl)-6-{4-[3-(trifluoromethyl)pyridin-2-yl]piperazin-1-yl}pyrimidin-2-yl)-N,N-dimethylazetidin-3-amine] | ≤ 1000
CCN(CC)C1CN(c2nc(-c3ccc(F)c(Cl)c3)cc(N3CCN(c4ncccc4C(F)(F)F)CC3)n2)C1 [Example 790, 1-(4-(3-chloro-4-fluorophenyl)-6-{4-[3-(trifluoromethyl)pyridin-2-yl]piperazin-1-yl}pyrimidin-2-yl)-N,N-diethylazetidin-3-amine] | ≤ 1000
CC(C)c1cc(-c2cc(N3CCN(c4ncccc4C(F)(F)F)CC3)nc(N3CCCC3C)n2)ccn1 (stereo not drawn) [Example 796, 4-(2-isopropylpyridin-4-yl)-2-(2-methylpyrrolidin-1-yl)-6-{4-[3-(trifluoromethyl)pyridin-2-yl]piperazin-1-yl}pyrimidine] | ≤ 1000

Continued, values first:

IC50 [nM] | Compound
≤ 1000 | O[C@H]1CCN(c2nc(-c3ccc(F)c(Cl)c3)cc(N3CCN(c4ncccc4C(F)(F)F)CC3)n2)C1 [Example 772, (3S)-1-(4-(3-chloro-4-fluorophenyl)-6-{4-[3-(trifluoromethyl)pyridin-2-yl]piperazin-1-yl}pyrimidin-2-yl)pyrrolidin-3-oI]
≤ 1000 | OC1CN(c2nc(-c3ccc(F)c(Cl)c3)cc(N3CCN(c4ncccc4C(F)(F)F)CC3)n2)C1 [Example 774, 1-(4-(3-chloro-4-fluorophenyl)-6-{4-[3-(trifluoromethyl)pyridin-2-yl]piperazin-1-yl}pyrimidin-2-yl)azetidin-3-ol]
≤ 1000 | CCCN1CCN(c2nc(-c3ccc(F)c(Cl)c3)cc(N3CCN(c4ncccc4Cl)C[C@H]3C)n2)CC1 [Example 779, 4-(3-chloro-4-fluorophenyl)-6-[(2R)-4-(3-chloropyridin-2-yl)-2-methylpiperazin-1-yl]-2-(4-propylpiperazin-1-yl)pyrimidine]
≤ 1000 | Cc1cc(-c2cc(N3CCN(c4ncccc4C(F)(F)F)C[C@H]3C)nc(N3CCC3C)n2)ccc1F (stereo partly drawn) [Example 786, 4-(4-fluoro-3-methyiphenyl)-2-(2-methylazetidin-1-yl)-6-{(2R)-2-methyl-4-[3-(trifluoromethyl)pyridin-2-yl]piperazin-1-yl}pyrimidine]
≤ 1000 | CCCN1CCN(c2nc(-c3ccc(F)c(C)c3)cc(N3CCN(c4ncccc4C(F)(F)F)C[C@H]3C)n2)CC1 [Example 787, 4-(4-fluoro-3-methylphenyl)-6-{(2R)-2-methyl-4-[3-(trifluoromethyl)pyridin-2-yl]piperazin-1-yl}-2-(4-propylpiperazin-1-yl)pyrimidine]
≤ 1000 | C[C@@H]1CN(c2ncccc2C(F)(F)F)CCN1c1cc(-c2ccc(F)c(F)c2)nc(N2CCCC2)n1 [Example 791, 4-(3,4-difluorophenyl)-6-{(2R)-2-methyl-4-[3-(trifluoromethyl)pyridin-2-yl]piperazin-1-yl}-2-pyrrolidin-1-ylpyrimidine]
≤ 1000 | CC1CCCN1c1nc(-c2ccc(F)c(F)c2)cc(N2CCN(c3ncccc3C(F)(F)F)C[C@H]2C)n1 (stereo partly drawn) [Example 792, 4-(3,4-difluorophenyl)-2-(2-methylpyrrolidin-1-yl)-6-{(2R)-2-methyl-4-[3-(trifluoromethyl)pyridin-2-yl]piperazin-1-yl}pyrimidine]
≤ 1000 | C[C@@H]1CN(c2ncccc2C(F)(F)F)CCN1c1cc(-c2ccc(F)c(F)c2)nc(N2CCCCC2)n1 [Example 793, 4-(3,4-difluorophenyl)-6-{(2R)-2-methyl-4-[3-(trifluoromethyl)pyridin-2-yl]piperazin-1-yl}-2-piperidin-1-ylpyrimidine]
≤ 1000 | Cc1cc(-c2cc(N3CCN(c4ncccc4C(F)(F)F)C[C@H]3C)nc(N3CCC3(C)C)n2)ccc1F [Example 794, 2-(2,2-dimethylazetidin-1-yl)-4-(4-fluoro-3-methylphenyl)-6-{(2R)-2-methyl-4-[3-(trifluoromethyl)pyridin-2-yl]piperazin-1-yl}pyrimidine]
≤ 1000 | Cc1cc(-c2cc(N3CCN(c4ncccc4C(F)(F)F)CC3)nc(N(C)C(C)CO)n2)ccc1F (stereo not drawn) [Example 795]

Same assay, conditions: determined as described in Example 6 (calcium mobilization, antagonist activity); Table II

Compound | IC50 [nM]
Cc1cc(-c2cc(N3CCN(c4ncccc4C(F)(F)F)CC3)nc(N3CCC3(C)C)n2)ccc1F [Example 766, 2-(2,2-dimethylazetidin-1-yl)-4-(4-fluoro-3-methylphenyl)-6-{4-[3-(trifluoromethyl)pyridin-2-yl]piperazin-1-yl}pyrimidine] | ≤ 1000
CC1CCCN1c1nc(-c2ccc(F)c(F)c2)cc(N2CCN(c3ncccc3Cl)C[C@H]2C)n1 (stereo partly drawn) [Example 768, 4-[(2R)-4-(3-chloropyridin-2-yl)-2-methylpiperazin-1-yl]-6-(3,4-difluorophenyl)-2-(2-methylpyrrolidin-1-yl)pyrimidine] | ≤ 1000
C[C@@H]1CN(c2ncccc2Cl)CCN1c1cc(-c2ccc(F)c(F)c2)nc(N2CCCCC2)n1 [Example 769, 4-{(2R)-4-(3-chloropyridin-2-yl)-2-methylpiperazin-1-yl]-6-(3,4-difluorophenyl)-2-piperidin-1-ylpyrimidine] | ≤ 1000
Cc1cc(-c2cc(N3CCN(c4ncccc4C(F)(F)F)C[C@H]3C)nc(N3CCCCC3C)n2)ccc1F (stereo partly drawn) [Example 770, 4-(4-fluoro-3-methylphenyl)-2-(2-methylpiperidin-1-yl)-6-{(2R)-2-methyl-4-[3-(trifluoromethyl)pyridin-2-yl]piperazin-1-yl}pyrimidine] | ≤ 1000

More lines, now with the values ahead:

IC50 [nM] | Compound
≤ 1000 | C[C@@H]1CN(c2ncccc2Cl)CCN1c1cc(-c2ccc(F)c(F)c2)nc(N2CCCC2)n1 [Example 767, 4-[(2R)-4-(3-chloropyridin-2-yl)-2-methylpiperazin-1-yl]-6-(3,4-difluorophenyl)-2-pyrrolidin-1-ylpyrimidine]
≤ 1000 | CC1CCCCN1c1nc(-c2ccc(F)c(F)c2)cc(N2CCN(c3ncccc3Cl)C[C@H]2C)n1 (stereo partly drawn) [Example 771, 4-[(2R)-4-(3-chloropyridin-2-yl)-2-methylpiperazin-1-yl]-6-(3,4-difluorophenyl)-2-(2-methylpiperidin-1-yl)pyrimidine]
